Test [1] deals with T1, IL-17A/F (Homo sapiens, UniProt Q16552+Q96PD4).
T1 construct: purchased R&D Systems
T1 sequence (Q16552 24-155): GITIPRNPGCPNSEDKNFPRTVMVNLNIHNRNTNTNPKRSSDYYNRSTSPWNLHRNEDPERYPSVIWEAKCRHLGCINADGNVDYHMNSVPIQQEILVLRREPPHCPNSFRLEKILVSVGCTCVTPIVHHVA
T1 sequence (Q96PD4 31-163): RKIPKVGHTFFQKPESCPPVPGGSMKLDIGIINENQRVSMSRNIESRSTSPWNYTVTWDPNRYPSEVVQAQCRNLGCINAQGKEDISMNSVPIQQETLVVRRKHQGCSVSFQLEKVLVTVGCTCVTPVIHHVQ
The experiment in a line: IL-17A/F HEK-Blue cell assay (SEAP reporter). Type of test: cell-based. To be noted: HEK-Blue IL-17A reporter cells, IL17A/F 5 ng/mL, 20 hours, SEAP read at A630; read-out: HEK-Blue IL17AF (IC50 for IL-17A/F inhibition).

Test [2] concerns the target T2, IL-17A/A (Homo sapiens, UniProt Q16552).
T2 construct: purchased Genscript Z03228
T2 sequence (Q16552 24-155): T1 sequence (Q16552 24-155)
The test can be described thus: IL-17A/A HEK-Blue cell assay (SEAP reporter). Type of test: cell-based. To be noted: HEK-Blue IL-17A reporter cells, IL17A/A 5 ng/mL, 20 hours, SEAP read at A630; read-out: HEK-Blue IL17AA (IC50 for IL-17A/A inhibition).

SMILES strings stand for the structures.

As for `Cn1nccc1C(=O)N[C@H](c1cn2nc(C[C@H]3C[C@@H](C(F)(F)F)CNC3=O)c([C@@H]3CCCOC3)nc2n1)C1CCC(F)(F)CC1` (single isomer, unassigned) [Compound 264], the values for the IC50 in test [1] and in test [2] were 0.1 to 1 µM and less than 0.1 µM, respectively.

`Cc1nonc1C(=O)N[C@H](c1cn2nc(C[C@H]3C[C@@H](C(F)(F)F)CNC3=O)c(C3CCCOC3)nc2n1)C1CCC(F)(F)CC1` (single isomer, unassigned) [Compound 265]: the IC50 was greater than 1 µM in test [1] and less than 0.1 µM in test [2].

Turning to `Cc1nonc1C(=O)N[C@H](c1cn2nc(C[C@H]3C[C@@H](C(F)(F)F)CNC3=O)c([C@@H]3CCCOC3)nc2n1)C1CCC(F)(F)CC1` (single isomer, unassigned) [Compound 266], the IC50 in test [1] is greater than 1 µM; in test [2], less than 0.1 µM.

In the case of `Cn1nccc1C(=O)N[C@H](c1cn2nc(C[C@H]3C[C@@H](C(F)(F)F)CNC3=O)c([C@H]3CCCOC3)nc2n1)[C@H]1CCCC(F)(F)C1` (single isomer, unassigned) [Compound 267], the values for the IC50 in test [1] and in test [2] were 0.1 to 1 µM and less than 0.1 µM, respectively.

`Cn1nccc1C(=O)N[C@H](c1cn2nc(C[C@H]3C[C@@H](C(F)(F)F)CNC3=O)c([C@@H]3CCCOC3)nc2n1)[C@H]1CCCC(F)(F)C1` (single isomer, unassigned) [Compound 268]: the IC50 in test [1] is 0.1 to 1 µM; in test [2], less than 0.1 µM.

For `CCn1nccc1C(=O)N[C@H](c1cn2nc(C[C@H]3C[C@@H](C(F)(F)F)CNC3=O)c(C3CCCC(F)(F)C3)nc2n1)C1CCC(F)(F)CC1` (single isomer, unassigned) [Compound 271], the IC50 is 0.1 to 1 µM in test [1] and less than 0.1 µM in test [2].

Consider `CCn1nccc1C(=O)N[C@H](c1cn2nc(C[C@H]3C[C@@H](C(F)(F)F)CNC3=O)c([C@@H]3CCCC(F)(F)C3)nc2n1)C1CCC(F)(F)CC1` (single isomer, unassigned) [Compound 272], for which the IC50 in test [1] and in test [2] was less than 0.1 µM throughout.

Take `Cc1nonc1C(=O)N[C@H](c1cn2nc(C[C@H]3C[C@@H](C(F)(F)F)CNC3=O)c([C@H]3CCOC3)nc2n1)C1CCC(F)(F)CC1` (single isomer, unassigned) [Compound 274]: the IC50 in test [1] is greater than 1 µM; in test [2], less than 0.1 µM.

`Cc1nonc1C(=O)N[C@H](c1cn2nc(C[C@H]3C[C@@H](C(F)(F)F)CNC3=O)c([C@@H]3CCOC3)nc2n1)C1CCC(F)(F)CC1` (single isomer, unassigned) [Compound 275]: the IC50 in test [1] was greater than 1 µM; in test [2], less than 0.1 µM.

Take `CCn1nccc1C(=O)N[C@H](c1cn2nc(C[C@H]3C[C@@H](C(F)(F)F)CNC3=O)c(C3CCN(C)C3)nc2n1)C1CCC(F)(F)CC1` (single isomer, unassigned) [Compound 285]: the results for the IC50 in test [1] and in test [2] were greater than 1 µM and 0.1 to 1 µM, respectively.

In the case of `CCn1nccc1C(=O)N[C@H](c1cn2nc(C[C@H]3C[C@@H](C(F)(F)F)CNC3=O)c(C3CCOCC3)nc2n1)[C@@H]1CC[C@@H]2C[C@@H]2CC1` (single isomer, unassigned) [Compound 293], the IC50 in test [1] and in test [2] was less than 0.1 µM in each case.

Consider `CCn1nccc1C(=O)N[C@H](c1cn2nc(C[C@H]3C[C@@H](C(F)(F)F)CNC3=O)c(C3CCOCC3)nc2n1)C1CC[C@@H]2C[C@@H]2CC1` (single isomer, unassigned) [Compound 294], for which the IC50 in test [1] and in test [2] was less than 0.1 µM throughout.

With `CCn1nccc1C(=O)N[C@H](c1cn2nc(C[C@H]3C[C@@H](C(F)(F)F)CNC3=O)c([C@H]3CCOC3)nc2n1)C(C1CC1)C1CC1` (single isomer, unassigned) [Compound 321], the IC50 was 0.1 to 1 µM in test [1] and less than 0.1 µM in test [2].

Consider `CCn1nccc1C(=O)N[C@H](c1cn2nc(C[C@H]3C[C@@H](C(F)(F)F)CNC3=O)c([C@@H]3CCOC3)nc2n1)C(C1CC1)C1CC1` (single isomer, unassigned) [Compound 322], for which the values for the IC50 in test [1] and in test [2] were 0.1 to 1 µM and less than 0.1 µM, respectively.

For the origin of these results see US20260226068A1, “IMIDAZOTRIAZINE IL-17A MODULATORS AND USES THEREOF” (DICE ALPHA, INC., priority 2023, published 2026).
